Results from patent US10912770B2, “Targeting AMP deaminase 2 for ameliorating craving for sugar and other substances” (The Regents of the University of Colorado, a body coporate, priority 2016, dated 2021).
“Also recorded” adds a separate entry of the source.

What was measured:
[1] = system: wild type mice; assay: Fructose craving: intake of fructose (15%) drinking water; format: in vivo
Protocol: (§1) Mice were administered the racemate of the active compound 1 (FIG. 2 in the paper by Admyre et al Chem Biol 2014; 21:1488-1496) by gavage at a dose of 25 mg/kg twice daily beginning two days before administering fructose (15%) in the drinking water.
(§2) The benefit from blocking AMPD2 on craving is not limited to mice genetically lacking AMPD2. Recently an inhibitor for AMPD2 was published, and we made a racemate of the active compound 1 (FIG. 2 in the paper by Admyre et al Chem Biol 2014; 21:1488-1496).

[2] = target: T1, AMPD2 (Mus musculus, UniProt Q9DBT5); assay: AMPD2 activity in the liver after oral pan AMPD inhibitor; format: in vivo; details: wild type mice, gavage 25 mg/kg twice daily (50 mg/kg/d)
T1 construct: from tissue
T1 sequence (Q9DBT5 1-824): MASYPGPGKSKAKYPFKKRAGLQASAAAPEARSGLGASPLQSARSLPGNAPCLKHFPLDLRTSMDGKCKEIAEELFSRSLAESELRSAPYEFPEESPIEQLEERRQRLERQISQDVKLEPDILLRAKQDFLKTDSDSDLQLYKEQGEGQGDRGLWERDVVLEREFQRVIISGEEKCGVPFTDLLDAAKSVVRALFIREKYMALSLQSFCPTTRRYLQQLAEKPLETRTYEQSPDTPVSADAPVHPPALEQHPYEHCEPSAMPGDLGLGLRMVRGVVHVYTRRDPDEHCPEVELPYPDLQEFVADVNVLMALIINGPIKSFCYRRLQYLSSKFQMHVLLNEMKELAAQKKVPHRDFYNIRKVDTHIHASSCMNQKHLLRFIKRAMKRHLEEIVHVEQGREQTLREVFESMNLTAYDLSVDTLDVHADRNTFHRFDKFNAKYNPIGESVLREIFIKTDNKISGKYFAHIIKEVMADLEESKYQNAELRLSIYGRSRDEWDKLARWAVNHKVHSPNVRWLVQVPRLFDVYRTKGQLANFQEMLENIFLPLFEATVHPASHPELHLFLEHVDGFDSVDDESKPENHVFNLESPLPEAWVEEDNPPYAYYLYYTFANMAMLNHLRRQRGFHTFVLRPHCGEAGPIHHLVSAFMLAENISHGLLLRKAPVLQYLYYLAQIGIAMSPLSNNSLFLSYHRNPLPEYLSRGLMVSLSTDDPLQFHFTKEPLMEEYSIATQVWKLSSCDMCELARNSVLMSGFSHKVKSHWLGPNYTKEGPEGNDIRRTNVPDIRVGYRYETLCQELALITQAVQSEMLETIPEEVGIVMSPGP
Protocol: as §1, §2

[3] = target: human AMPDA; details: cited from earlier work; for Ki: human AMPDA, read-out: AMPDA K(i)
[4] = target: T2, adenosine deaminase (Homo sapiens, UniProt P00813); details: cited from earlier work
T2 sequence (P00813 1-363): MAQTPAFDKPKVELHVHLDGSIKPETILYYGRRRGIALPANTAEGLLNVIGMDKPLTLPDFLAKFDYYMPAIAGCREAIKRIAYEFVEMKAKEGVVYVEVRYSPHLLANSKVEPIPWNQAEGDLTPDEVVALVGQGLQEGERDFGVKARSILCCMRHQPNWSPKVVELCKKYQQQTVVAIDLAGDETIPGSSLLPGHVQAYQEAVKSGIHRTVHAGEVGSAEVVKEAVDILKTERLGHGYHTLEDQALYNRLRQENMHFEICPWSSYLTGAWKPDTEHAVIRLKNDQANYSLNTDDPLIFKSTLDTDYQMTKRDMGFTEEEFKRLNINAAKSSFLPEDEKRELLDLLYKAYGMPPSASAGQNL

In the case of CC(NCc1ccc(-c2ccc(C(=O)O)cn2)cc1)c1cccc2ccncc12 (racemic) [racemate of the active compound 1, 6-(4-((1-(Isoquinolin-8-yl)ethylamino)methyl)phenyl)nicotinic acid], the craving for fructose ([1]; gavage 25 mg/kg twice daily (50 mg/kg/d), fructose (15%) water) is reported as “completely blocked the craving for fructose”, the “intake of fructose-containing water” value ([1]; gavage 25 mg/kg twice daily from two days before fructose (15%) in drinking water) is reported as “significantly reduce the intake of fructose-containing water” and the “AMPD2 activity in the liver” value [2] is reported as “significantly block AMPD2 activity in the liver; also recorded: inhibition of AMPD2 activity in the liver”.
For CCc1cc(CCn2cnc3c2N=CNCC3O)cc(C(=O)O)c1 (centres unmarked) [43 g, 3-[2-(3-carboxy-5-ethylphenyl)ethyl]-3,6,7,8-tetrahydroimidazo[4,5-d][1,3]diazepin-8-ol], the Ki [3] is given as 60 nM.
In the case of “3-[2-(3-carboxy-4-bromo-5,6,7,8-tetrahydronaphthyl)ethyl]-3,6,7,8-tetrahydroimidazo[4,5-d][1,3]diazepin-8-ol [Compound 24b]”, the “enhancement in AMPDA inhibitory potency” value [3] is listed as 10- to 250 fold, the “potency (K(i)) lower than the Km for the substrate AMP” value [3] is listed as 10(5) fold and the Ki [3] is listed as 2 nM. The enzyme specificity [4] was “without loss in the enzyme specificity”.
